Test results as given in PubChem BioAssay (NCI).
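Tested at 5 concentrations; 48 h exposure; 96-well plates; endpoints linearly interpolated, else capped at highest concentration. TGI denotes the concentration required for complete inhibition of growth.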

Columns and labels:
Experiment in all cases: inhibition of tumour cell growth, NCI panel, 48 h
T-47D breast = system: T-47D breast
OVCAR-5 ovarian = system: OVCAR-5 ovarian
SF-268 CNS = system: SF-268 CNS
BT-549 breast = system: BT-549 breast
SW-620 colon = system: SW-620 colon
ACHN renal = system: ACHN renal
CAKI-1 renal = system: CAKI-1 renal
HS 578T breast = system: HS 578T breast
UACC-257 melanoma = system: UACC-257 melanoma
MDA-MB-231 breast = system: MDA-MB-231 breast
KM12 colon = system: KM12 colon
MCF7 breast = system: MCF7 breast
IGROV1 ovarian = system: IGROV1 ovarian
SF-539 CNS = system: SF-539 CNS
U251 CNS = system: U251 CNS
NCI/ADR-RES ovarian = system: NCI/ADR-RES ovarian
UO-31 renal = system: UO-31 renal
SK-MEL-28 melanoma = system: SK-MEL-28 melanoma
SK-MEL-2 melanoma = system: SK-MEL-2 melanoma
HL-60(TB) leukemia = system: HL-60(TB) leukemia
786-0 renal = system: 786-0 renal
A549 NSCLC = system: A549 NSCLC
SNB-75 CNS = system: SNB-75 CNS
COLO 205 colon = system: COLO 205 colon
HOP-62 NSCLC = system: HOP-62 NSCLC
MOLT-4 leukemia = system: MOLT-4 leukemia
CCRF-CEM leukemia = system: CCRF-CEM leukemia
UACC-62 melanoma = system: UACC-62 melanoma
NCI-H460 lung = system: NCI-H460 lung
OVCAR-3 ovarian = system: OVCAR-3 ovarian
LOX IMVI melanoma = system: LOX IMVI melanoma
HT29 colon = system: HT29 colon
SNB-19 CNS = system: SNB-19 CNS
SK-MEL-5 melanoma = system: SK-MEL-5 melanoma
A498 renal = system: A498 renal
EKVX NSCLC = system: EKVX NSCLC
K-562 leukemia = system: K-562 leukemia
HCT-15 colon = system: HCT-15 colon
SR leukemia = system: SR leukemia
OVCAR-8 ovarian = system: OVCAR-8 ovarian
HOP-92 NSCLC = system: HOP-92 NSCLC
OVCAR-4 ovarian = system: OVCAR-4 ovarian
RXF 393 renal = system: RXF 393 renal
RPMI-8226 leukemia = system: RPMI-8226 leukemia
SN12C renal = system: SN12C renal
MDA-MB-435 = system: MDA-MB-435
HCC-2998 colon = system: HCC-2998 colon
SK-OV-3 ovarian = system: SK-OV-3 ovarian
TK-10 renal = system: TK-10 renal
M14 melanoma = system: M14 melanoma
PC-3 prostate = system: PC-3 prostate
DU-145 prostate = system: DU-145 prostate
HCT-116 colon = system: HCT-116 colon
SF-295 CNS = system: SF-295 CNS
MDA-N = system: MDA-N
NCI-H226 lung = system: NCI-H226 lung
NCI-H23 lung = system: NCI-H23 lung
MALME-3M melanoma = system: MALME-3M melanoma
NCI-H522 lung = system: NCI-H522 lung

Structure (SMILES): O=C1/C(=C/Cc2ccco2)N=C(c2ccccc2)N1c1nc2ccc(Sc3ccccc3)cc2[nH]1
- TGI (T-47D breast): > 100 µM
- TGI (OVCAR-5 ovarian): 96.9 µM
- TGI (SF-268 CNS): 58.1 µM
- TGI (BT-549 breast): 57.7 µM
- TGI (SW-620 colon): > 100 µM
- TGI (ACHN renal): 44.9 µM
- TGI (CAKI-1 renal): > 100 µM
- TGI (HS 578T breast): 50.7 µM
- TGI (UACC-257 melanoma): 57.5 µM
- TGI (MDA-MB-231 breast): 57 µM
- TGI (KM12 colon): 45.5 µM
- TGI (MCF7 breast): 49.2 µM
- TGI (IGROV1 ovarian): > 100 µM
- TGI (SF-539 CNS): > 100 µM
- TGI (U251 CNS): 43.9 µM
- TGI (NCI/ADR-RES ovarian): 72.4 µM
- TGI (UO-31 renal): 50.6 µM
- TGI (SK-MEL-28 melanoma): 85 µM
- TGI (SK-MEL-2 melanoma): 34.8 µM
- TGI (HL-60(TB) leukemia): 45.4 µM
- TGI (786-0 renal): 38.5 µM
- TGI (A549 NSCLC): > 100 µM
- TGI (SNB-75 CNS): 75.7 µM
- TGI (COLO 205 colon): 36 µM
- TGI (HOP-62 NSCLC): > 100 µM
- TGI (MOLT-4 leukemia): 92.9 µM
- TGI (CCRF-CEM leukemia): 44.2 µM
- TGI (UACC-62 melanoma): 83.1 µM
- TGI (NCI-H460 lung): > 100 µM
- TGI (OVCAR-3 ovarian): 84.8 µM
- TGI (LOX IMVI melanoma): 43.7 µM
- TGI (HT29 colon): 73.6 µM
- TGI (SNB-19 CNS): 86.7 µM
- TGI (SK-MEL-5 melanoma): 31.8 µM
- TGI (A498 renal): 30.7 µM
- TGI (EKVX NSCLC): > 100 µM
- TGI (K-562 leukemia): > 100 µM
- TGI (HCT-15 colon): > 100 µM
- TGI (SR leukemia): 54.6 µM
- TGI (OVCAR-8 ovarian): 62.6 µM
- TGI (HOP-92 NSCLC): 67.6 µM
- TGI (OVCAR-4 ovarian): 86.3 µM
- TGI (RXF 393 renal): 36.1 µM
- TGI (RPMI-8226 leukemia): > 100 µM
- TGI (SN12C renal): 34.9 µM
- TGI (MDA-MB-435): 23.5 µM
- TGI (HCC-2998 colon): 40.6 µM
- TGI (SK-OV-3 ovarian): 84.6 µM
- TGI (TK-10 renal): > 100 µM
- TGI (M14 melanoma): 42.5 µM
- TGI (PC-3 prostate): 53.6 µM
- TGI (DU-145 prostate): 70.5 µM
- TGI (HCT-116 colon): 40.7 µM
- TGI (SF-295 CNS): > 100 µM
- TGI (MDA-N): 25 µM

Structure (SMILES): Cc1cccc(N=Nc2ccc(O)c(CN(C)C)c2)c1
- TGI (T-47D breast): 57.5 µM
- TGI (OVCAR-5 ovarian): 98.4 µM
- TGI (SF-268 CNS): > 100 µM
- TGI (BT-549 breast): > 100 µM
- TGI (SW-620 colon): 66.8 µM
- TGI (ACHN renal): 34.9 µM
- TGI (CAKI-1 renal): > 100 µM
- TGI (HS 578T breast): 44.9 µM
- TGI (UACC-257 melanoma): 36 µM
- TGI (NCI-H226 lung): > 100 µM
- TGI (MDA-MB-231 breast): > 100 µM
- TGI (KM12 colon): 34.4 µM
- TGI (MCF7 breast): > 100 µM
- TGI (IGROV1 ovarian): 65.9 µM
- TGI (SF-539 CNS): 41.6 µM
- TGI (U251 CNS): > 100 µM
- TGI (NCI/ADR-RES ovarian): 72.6 µM
- TGI (UO-31 renal): 51.5 µM
- TGI (SK-MEL-28 melanoma): 36.9 µM
- TGI (SK-MEL-2 melanoma): 47.6 µM
- TGI (HL-60(TB) leukemia): 54.2 µM
- TGI (786-0 renal): 92.5 µM
- TGI (A549 NSCLC): > 100 µM
- TGI (SNB-75 CNS): 94.5 µM
- TGI (NCI-H23 lung): > 100 µM
- TGI (COLO 205 colon): 28.6 µM
- TGI (HOP-62 NSCLC): 28.9 µM
- TGI (MOLT-4 leukemia): 91.6 µM
- TGI (CCRF-CEM leukemia): 4.69 µM
- TGI (UACC-62 melanoma): 30.4 µM
- TGI (NCI-H460 lung): 34.8 µM
- TGI (OVCAR-3 ovarian): 52.7 µM
- TGI (LOX IMVI melanoma): 26.9 µM
- TGI (HT29 colon): 53.8 µM
- TGI (SNB-19 CNS): > 100 µM
- TGI (SK-MEL-5 melanoma): 27.5 µM
- TGI (A498 renal): 38.8 µM
- TGI (EKVX NSCLC): 58.1 µM
- TGI (K-562 leukemia): 16.1 µM
- TGI (HCT-15 colon): 80.6 µM
- TGI (SR leukemia): > 100 µM
- TGI (OVCAR-8 ovarian): 85.1 µM
- TGI (HOP-92 NSCLC): > 100 µM
- TGI (MALME-3M melanoma): 21.8 µM
- TGI (OVCAR-4 ovarian): > 100 µM
- TGI (RXF 393 renal): 73.7 µM
- TGI (RPMI-8226 leukemia): > 100 µM
- TGI (SN12C renal): > 100 µM
- TGI (MDA-MB-435): 35.8 µM
- TGI (NCI-H522 lung): 24.1 µM
- TGI (HCC-2998 colon): 30.3 µM
- TGI (SK-OV-3 ovarian): > 100 µM
- TGI (TK-10 renal): 72.4 µM
- TGI (M14 melanoma): 62.2 µM
- TGI (PC-3 prostate): > 100 µM
- TGI (HCT-116 colon): > 100 µM
- TGI (SF-295 CNS): 86.5 µM
- TGI (MDA-N): 75.2 µM

Structure (SMILES): COC(=O)C1(N2CCOCC2)CCC([C@@H](c2ccccc2)C(C)[N+](=O)[O-])C1 (stereo partly specified)
- TGI (T-47D breast): 9.62 µM
- TGI (OVCAR-5 ovarian): > 100 µM
- TGI (SF-268 CNS): > 100 µM
- TGI (BT-549 breast): 60.8 µM
- TGI (SW-620 colon): > 100 µM
- TGI (ACHN renal): > 100 µM
- TGI (HS 578T breast): > 100 µM
- TGI (UACC-257 melanoma): 86.9 µM
- TGI (NCI-H226 lung): > 100 µM
- TGI (MDA-MB-231 breast): > 100 µM
- TGI (KM12 colon): > 100 µM
- TGI (MCF7 breast): 54.5 µM
- TGI (SF-539 CNS): > 100 µM
- TGI (U251 CNS): > 100 µM
- TGI (NCI/ADR-RES ovarian): > 100 µM
- TGI (UO-31 renal): > 100 µM
- TGI (SK-MEL-28 melanoma): > 100 µM
- TGI (SK-MEL-2 melanoma): > 100 µM
- TGI (HL-60(TB) leukemia): > 100 µM
- TGI (786-0 renal): > 100 µM
- TGI (A549 NSCLC): > 100 µM
- TGI (SNB-75 CNS): > 100 µM
- TGI (NCI-H23 lung): > 100 µM
- TGI (COLO 205 colon): > 100 µM
- TGI (HOP-62 NSCLC): > 100 µM
- TGI (MOLT-4 leukemia): > 100 µM
- TGI (CCRF-CEM leukemia): 20.3 µM
- TGI (UACC-62 melanoma): > 100 µM
- TGI (NCI-H460 lung): > 100 µM
- TGI (OVCAR-3 ovarian): 71.3 µM
- TGI (LOX IMVI melanoma): > 100 µM
- TGI (HT29 colon): > 100 µM
- TGI (SNB-19 CNS): > 100 µM
- TGI (SK-MEL-5 melanoma): > 100 µM
- TGI (A498 renal): > 100 µM
- TGI (EKVX NSCLC): > 100 µM
- TGI (K-562 leukemia): > 100 µM
- TGI (HCT-15 colon): > 100 µM
- TGI (SR leukemia): 60.4 µM
- TGI (OVCAR-8 ovarian): > 100 µM
- TGI (MALME-3M melanoma): > 100 µM
- TGI (OVCAR-4 ovarian): > 100 µM
- TGI (RPMI-8226 leukemia): 42.9 µM
- TGI (SN12C renal): > 100 µM
- TGI (MDA-MB-435): > 100 µM
- TGI (HCC-2998 colon): > 100 µM
- TGI (SK-OV-3 ovarian): > 100 µM
- TGI (TK-10 renal): > 100 µM
- TGI (M14 melanoma): > 100 µM
- TGI (PC-3 prostate): > 100 µM
- TGI (DU-145 prostate): 59.6 µM
- TGI (SF-295 CNS): > 100 µM
- TGI (MDA-N): > 100 µM
